Measured values reported in patent US10717964B2, “Synthetic methylotrophy to liquid fuels and chemicals” (University of Delaware, priority 2014, dated 2020).

Legend:
[1] = tested on: formate dehydrogenase (FDH, fdh) from Clostridium carboxidivorans P7T; details: read-out: Km (for NADH); cited from earlier work
[2] = tested on: E. coli Rosetta empty vector control (pET21_Empty); test: Growth of empty vector control E. coli in media spiked with formaldehyde; type: cell-based; details: LB plus formaldehyde (2 mM) or mixture of M9 and LB plus formaldehyde (1.5 mM)
Method: FIGS. 42A-B show growth of E. coli expressing HPS and PHI genes from M. gastri. The ability of E. coli to grow in A) LB or B) mixed M9:LB (3:1) spiked with formaldehyde was assessed. Log phase cultures of E. coli harboring pET_M.g.PHI_HPS (circles) or pET21_Empty (squares) were induced with 0.5 mM IPTG for 3 h before being diluted into test media containing 2 mM formaldehyde (LB) or 1.5 mM formaldehyde (M9:LB). Aliquots were taken from the cultures at the indicated time points to determine the optical density (OD600). Arrows indicate times in which the cultures were spiked with (A) 2 mM or (B) 1.5 mM formaldehyde.
Primers were designed to amplify the Mycobacterium gastri phi-hps operon, which encodes the genes necessary to fix formaldehyde to ribulose-5-phosphate yielding hexulose-6-phosphate, and then convert […] to fructose-6-phosphate. Genes were amplified and initially cloned into the expression vector pET21a (Novagen). This vector utilizes the T7 promoter, and was transformed into the Rosetta strain of E. coli. E. coli Rosetta expressing the M. gastri PHI-HPS operon was compared with an empty vector control for growth in LB with 2 mM formaldehyde (FIG. 42A-B). […] When the same strains were tested in M9 minimal media containing only formaldehyde (0.25 mM) as the sole carbon source, no increase in OD600 was observed (FIG. 43).

E. coli pACM4_pFRM_GFP = type: cell-based; details: 500 and 1000 μM HCHO, MOPS+0.1% glucose
Text: (§1) GFP expression correlated with HCHO concentration over time. Overnight LB cultures were transferred to MOPS+0.1% glucose for the experiment.

E. coli pETM6_Pfrm_GFP = type: cell-based; details: 2 and 4 mM HCHO, MOPS+0.1% glucose
Text: as §1

[3] = tested on: E. coli pACM4_pFRM_GFP+pETM6-BstMDH; type: cell-based; details: 2000 and 4000 mM methanol, MOPS+0.1% glucose
Text: Overnight LB cultures were transferred to MOPS+0.1% glucose for the experiment.

[4] = substrate: CO; test: cells, lysate or membranes named; details: other: crude cell extracts of E. coli, in vitro

NC(=O)C1=CN([C@@H]2O[C@H](COP(=O)(O)OP(=O)(O)OC[C@H]3O[C@@H](n4cnc5c(N)ncnc54)[C@H](O)[C@@H]3O)[C@@H](O)[C@H]2O)C=CC1 [NADH]
Km [1]: 50 µM

C=O [formaldehyde]
growth [2]: unable to grow | growth (E. coli pACM4_pFRM_GFP): Retarded growth | growth (E. coli pETM6_Pfrm_GFP): No growth was observed

CO [methanol]
growth [3]: Retarded growth

B1: methanol dehydrogenase MDH1 (MDH) from Bacillus stearothermophilus (Geobacillus stearothermophilus) (protein)
chain: MKAAVVNEFKKALEIKEVERPKLEEGEVLVKIEACGVCHTDLHAAHGDWPIKPKLPLIPGHEGVGIVVEVAKGVKSIKVGDRVGIPWLYSACGECEYCLTGQETLCPHQLNGGYSVDGGYAEYCKAPADYVAKIPDNLDPVEVAPILCAGVTTYKALKVSGARPGEWVAIYGIGGLGHIALQYAKAMGLNVVAVDISDEKSKLAKDLGADIAINGLKEDPVKAIHDQVGGVHAAISVAVNKKAFEQAYQSVKRGGTLVVVGLPNADLPIPIFDTVLNGVSVKGSIVGTRKDMQEALDFAARGKVRPIVETAELEEINEVFERMEKGKINGRIVLKLKED
Km [4]: 27000 µM
